# Results: paper PMC7704689 (Bioorganic & medicinal chemistry letters, 2020)
# System: Raji cells, a Burkitt's lymphoma (BL) cell line
# Test: Viability of Raji cells
# Format: cell-based, human
# Conditions: 100 nM, 72 h
row,Compound,inhibition of viability of Raji cells
1,COC(=O)[C@@]12OC[C@]34[C@H]([C@@H](O)[C@@H]1O)[C@@]1(C)CC(=O)C(OC(=O)CNC(=O)OC(C)(C)C)=C(C)[C@@H]1C[C@H]3OC(=O)[C@H](OC(=O)C=C(C)C)[C@@H]24 [UPB-15],moderate inhibition
2,COC(=O)[C@@]12OC[C@]34[C@H]([C@@H](O)[C@@H]1O)[C@@]1(C)CC(=O)C(OC(=O)CNC(=O)CN)=C(C)[C@@H]1C[C@H]3OC(=O)[C@H](OC(=O)C=C(C)C)[C@@H]24 [Compound 20],potent activities comparable to or higher than the parent brusatol
3,COC(=O)[C@@]12OC[C@]34[C@H]([C@@H](O)[C@@H]1O)[C@@]1(C)CC(=O)C(OC(=O)[C@H](C)NC(=O)[C@H](C)N)=C(C)[C@@H]1C[C@H]3OC(=O)[C@H](OC(=O)C=C(C)C)[C@@H]24 [Compound 22],not active
4,COC(=O)[C@@]12OC[C@]34[C@H]([C@@H](O)[C@@H]1O)[C@@]1(C)CC(=O)C(OC(=O)[C@H](C)NC(=O)OC(C)(C)C)=C(C)[C@@H]1C[C@H]3OC(=O)[C@H](OC(=O)C=C(C)C)[C@@H]24 [Compound 6],moderate inhibition
5,COC(=O)[C@@]12OC[C@]34[C@H]([C@@H](O)[C@@H]1O)[C@@]1(C)CC(=O)C(OC(=O)CNC(=O)CNC(=O)CN)=C(C)[C@@H]1C[C@H]3OC(=O)[C@H](OC(=O)C=C(C)C)[C@@H]24 [Compound 23],potent activities comparable to or higher than the parent brusatol
6,"COC(=O)[C@@]12OC[C@]34[C@H]([C@@H](O)[C@@H]1O)[C@@]1(C)CC(=O)C(OC(=O)C[C@H](C)N)=C(C)[C@@H]1C[C@H]3OC(=O)[C@H](OC(=O)C=C(C)C)[C@@H]24 [UPB-26, 3-(3-β-HoAla)-brusatol]",potent activities comparable to or higher than the parent brusatol
7,COC(=O)[C@@]12OC[C@]34[C@H]([C@@H](O)[C@@H]1O)[C@@]1(C)CC(=O)C(OC(=O)C[C@H](C)NS(C)(=O)=O)=C(C)[C@@H]1C[C@H]3OC(=O)[C@H](OC(=O)C=C(C)C)[C@@H]24 [Compound 29],lost activities
8,COC(=O)[C@@]12OC[C@]34[C@H]([C@@H](O)[C@@H]1O)[C@@]1(C)CC(=O)C(OC(=O)[C@@H]5CCCN5C(=O)OC(C)(C)C)=C(C)[C@@H]1C[C@H]3OC(=O)[C@H](OC(=O)C=C(C)C)[C@@H]24 [Compound 11],moderate inhibition
9,COC(=O)[C@@]12OC[C@]34[C@H]([C@@H](O)[C@@H]1O)[C@@]1(C)CC(=O)C(OC(=O)C[C@H](C)NC(=O)C[C@H](C)N)=C(C)[C@@H]1C[C@H]3OC(=O)[C@H](OC(=O)C=C(C)C)[C@@H]24 [Compound 21],potent activities comparable to or higher than the parent brusatol
10,COC(=O)[C@@]12OC[C@]34[C@H]([C@@H](O)[C@@H]1O)[C@@]1(C)CC(=O)C(OCC(=O)NCCN)=C(C)[C@@H]1C[C@H]3OC(=O)[C@H](OC(=O)C=C(C)C)[C@@H]24 [Compound 40],moderate activity
11,COC(=O)[C@@]12OC[C@]34[C@H]([C@@H](O)[C@@H]1O)[C@@]1(C)CC(=O)C(OC(=O)[C@@H]5CCCN5)=C(C)[C@@H]1C[C@H]3OC(=O)[C@H](OC(=O)C=C(C)C)[C@@H]24 [UPB-31],potent activities comparable to or higher than the parent brusatol

# System: NOD/SCID mice
# Test: not given
# Conditions: mouse, in vivo
row,Compound,mice survived (of 4 per group)
1,"COC(=O)[C@@]12OC[C@]34[C@H]([C@@H](O)[C@@H]1O)[C@@]1(C)CC(=O)C(OC(=O)C[C@H](C)N)=C(C)[C@@H]1C[C@H]3OC(=O)[C@H](OC(=O)C=C(C)C)[C@@H]24 [UPB-26, 3-(3-β-HoAla)-brusatol]",four

# System: MOLT-4, SU-DHL-6, SU-DHL-10, RPMI-8226 and LCL1 cells
# Test: Activity on five other hematologic malignancy derived cell lines
# Format: cell-based, human
# Conditions: MOLT-4, SU-DHL-6, SU-DHL-10, RPMI-8226, LCL1
row,Compound,activity on five other cell lines
1,COC(=O)[C@@]12OC[C@]34[C@H]([C@@H](O)[C@@H]1O)[C@@]1(C)CC(=O)C(OCC(=O)NCCN)=C(C)[C@@H]1C[C@H]3OC(=O)[C@H](OC(=O)C=C(C)C)[C@@H]24 [Compound 40],moderate to good activities
